# Test results taken from ChEMBL document CHEMBL1781964, “Exploring molecular shape analysis of styrylquinoline derivatives as HIV-1 integrase inhibitors” (Eur J Med Chem, 2008).
# Target: Human immunodeficiency virus type 1 integrase (Human immunodeficiency virus 1, UniProt Q7ZJM1)
# Assay: Inhibition of HIV1 integrase 3' processing activity
# Chain of Human immunodeficiency virus type 1 integrase (Q7ZJM1 whole entry): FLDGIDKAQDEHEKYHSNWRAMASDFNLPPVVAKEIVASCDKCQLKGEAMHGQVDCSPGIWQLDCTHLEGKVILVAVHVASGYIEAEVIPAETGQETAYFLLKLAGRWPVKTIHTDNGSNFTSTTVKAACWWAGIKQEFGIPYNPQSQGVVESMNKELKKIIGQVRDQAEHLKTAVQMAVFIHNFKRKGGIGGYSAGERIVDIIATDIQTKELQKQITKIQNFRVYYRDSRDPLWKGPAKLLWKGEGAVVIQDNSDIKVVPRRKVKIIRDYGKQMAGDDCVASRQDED
row,Structure (SMILES),IC50
1,Cc1ccc2cccc(OC(=O)/C=C/c3ccc(O)c(O)c3)c2n1,100 µM
2,Cc1ccc2cccc(O)c2n1 [8-HYDROXY QUINALDINE],100 µM
3,COC(=O)c1ccc2ccc(/C=C/c3ccc(O)c(O)c3)nc2c1O,100 µM
4,Oc1cccc2ccc(/C=C/c3ccc4cccc(O)c4n3)nc12,100 µM
5,Oc1cccc2ccc(/C=C/c3ccccc3)nc12,100 µM
6,Cc1ccc2ccc(C(=O)O)c(O)c2n1,100 µM
7,Cc1cc(/C=C/c2ccc3ccc(C(=O)O)c(O)c3n2)ccc1O,2.82 µM
8,O=C(O)c1ccc2ccc(/C=C/c3ccc(O)c(O)c3O)nc2c1O,0.302 µM

# The next lines start with the values.
row,IC50,Structure (SMILES)
1,100 µM,CC(=O)Oc1ccc(/C=C/c2ccc3cccc(OC(C)=O)c3n2)cc1OC(C)=O
2,100 µM,O=[N+]([O-])c1cccc2ccc(/C=C/c3ccc(O)c(O)c3)nc12
3,100 µM,Oc1ccc(/C=C/c2ccc3c(Cl)cc(Cl)c(O)c3n2)cc1O
4,100 µM,COc1ccc(/C=C/C(=O)Oc2cccc3ccc(C)nc23)cc1OC
5,100 µM,Oc1ccc(/C=C/c2ccc3ccccc3n2)cc1O
6,100 µM,CC(=O)Oc1cccc2ccc(/C=C/c3ccccc3)nc12
7,100 µM,Nc1cccc2ccc(/C=C/c3ccc(O)c(O)c3)nc12
